Experimental findings from ChEMBL document CHEMBL5143665, “Discovery and preclinical evaluations of WX-0593, a novel ALK inhibitor targeting crizotinib-resistant mutations” (Bioorg Med Chem Lett, 2022) are described below.

Data set [1] in a line: Clearance in mouse at 1 mg/kg, iv. The format is ADME, organism-based. The following applies: in vivo.
Data set [2] is described as follows: Volume of distribution at steady state in mouse at 1 mg/kg, iv. The data set is classed as ADME, organism-based. Particulars: in vivo, read-out: Vdss.
A short description of data set [3]: Half-life in mouse at 1 mg/kg, iv. The format is ADME, organism-based. Particulars: in vivo.
Data set [4] is described as follows: Cmax in mouse at 10 mg/kg, po. The data set is classed as ADME, organism-based. Set-up: dose 10 mg/kg, route po. Particulars: in vivo.
Data set [5] can be described thus: AUC (0 to last) in mouse at 10 mg/kg, po. Set-up: time 0 - last, dose 10 mg/kg, route po. The format is ADME, organism-based. The following applies: in vivo.
Data set [6] is described as follows: Oral bioavailability in mouse at 10 mg/kg. The data set is classed as ADME, organism-based. Particulars: in vivo.
Data set [7] concerns KARPAS-299. Nature of the data set: cells. Particulars: Homo sapiens.
Description: Antiproliferative activity against human KARPAS-299 cells harbouring wild type ALK assessed as reduction in cell viability by Celltitre-Glo luminescent assay
Data set [8] has as its system BaF3. Nature of the data set: cells. Particulars: Mus musculus.
Description: Antiproliferative activity against mouse BaF3 cells harbouring ALK wild type assessed as reduction in cell viability by Celltitre-Glo luminescent assay
Data set [9] concerns BaF3. Nature of the data set: cells. The following applies: Mus musculus. This is another data set of the same source.
Description: Antiproliferative activity against mouse BaF3 cells harbouring ALK L1196M mutant assessed as reduction in cell viability by Celltitre-Glo luminescent assay
Data set [10] deals with BaF3. In words: cells. The following applies: Mus musculus. This is another data set of the same source.
Description: Antiproliferative activity against mouse BaF3 cells harbouring ALK C1156Y mutant assessed as reduction in cell viability by Celltitre-Glo luminescent assay
A short description of data set [11]: Clearance in Balb/c nude mouse at 1 mg/kg, iv. The data set is classed as ADME, organism-based. Particulars: in vivo.
In data set [12] the test system is BaF3. Nature of the data set: Antiproliferative activity against crizotinib resistant mouse BaF3 cells expressing EML4 fused ALK F1174C mutant assessed as reduction in cell viability incubated for 72 hrs by Celltitre-Glo luminescent assay. The following applies: BaF3, 72 h. The data set is classed as functional, cell-based.
Data set [13] concerns BaF3. In words: Antiproliferative activity against crizotinib resistant mouse BaF3 cells expressing EML4 fused ALK I1171S mutant assessed as reduction in cell viability incubated for 72 hrs by Celltitre-Glo luminescent assay. The format is functional, cell-based. Particulars: BaF3, 72 h.
The test system of data set [14] is BaF3. Nature of the data set: Antiproliferative activity against crizotinib resistant mouse BaF3 cells expressing EML4 fused ALK T1151Tins mutant assessed as reduction in cell viability incubated for 72 hrs by Celltitre-Glo luminescent assay. The data set is classed as functional, cell-based. The following applies: BaF3, 72 h.
For data set [15], the system named is BaF3. Nature of the data set: Antiproliferative activity against crizotinib resistant mouse BaF3 cells expressing EML4 fused ALK F1174V mutant assessed as reduction in cell viability incubated for 72 hrs by Celltitre-Glo luminescent assay. The format is functional, cell-based. The following applies: BaF3, 72 h.
Data set [16] concerns BaF3. In words: Antiproliferative activity against crizotinib resistant mouse BaF3 cells expressing EML4 fused ALK V1180L mutant assessed as reduction in cell viability incubated for 72 hrs by Celltitre-Glo luminescent assay. The format is functional, cell-based. The following applies: BaF3, 72 h.
In data set [17] the test system is BaF3. Nature of the data set: Antiproliferative activity against crizotinib resistant mouse BaF3 cells expressing EML4 fused ALK L1152R mutant assessed as reduction in cell viability incubated for 72 hrs by Celltitre-Glo luminescent assay. The data set is classed as functional, cell-based. The following applies: BaF3, 72 h.
Data set [18] deals with BaF3. Nature of the data set: Antiproliferative activity against crizotinib resistant mouse BaF3 cells expressing EML4 fused ALK L1152P mutant assessed as reduction in cell viability incubated for 72 hrs by Celltitre-Glo luminescent assay. The data set is classed as functional, cell-based. Particulars: BaF3, 72 h.
Data set [19] has as its system BaF3. Nature of the data set: Antiproliferative activity against crizotinib resistant mouse BaF3 cells expressing EML4 fused ALK I1171T mutant assessed as reduction in cell viability incubated for 72 hrs by Celltitre-Glo luminescent assay. Particulars: BaF3, 72 h. The data set is classed as functional, cell-based.
Data set [20] has as its system BaF3. Nature of the data set: Antiproliferative activity against crizotinib resistant mouse BaF3 cells expressing EML4 fused ALK I1171N mutant assessed as reduction in cell viability incubated for 72 hrs by Celltitre-Glo luminescent assay. The following applies: BaF3, 72 h. The format is functional, cell-based.
In data set [21] the test system is BaF3. Nature of the data set: Antiproliferative activity against mouse BaF3 cells harbouring SLC34A2-ROS1-L2026M mutant assessed as reduction in cell viability incubated for 72 hrs by Celltitre-Glo luminescent assay. The data set is classed as functional, cell-based. The following applies: BaF3, 72 h.
Data set [22] concerns BaF3. In words: Antiproliferative activity against mouse BaF3 cells harbouring CD74-ROS1-S1986Y mutant assessed as reduction in cell viability incubated for 72 hrs by Celltitre-Glo luminescent assay. The format is functional, cell-based. The following applies: BaF3, 72 h.
Data set [23] has as its system BaF3. Nature of the data set: Antiproliferative activity against mouse BaF3 cells harbouring CD74-ROS1-S1986F mutant assessed as reduction in cell viability incubated for 72 hrs by Celltitre-Glo luminescent assay. Particulars: BaF3, 72 h. The format is functional, cell-based.
Data set [24] has as its system BaF3. Nature of the data set: Antiproliferative activity against mouse BaF3 cells harbouring CD74-ROS1-D2033N mutant assessed as reduction in cell viability incubated for 72 hrs by Celltitre-Glo luminescent assay. The data set is classed as functional, cell-based. Particulars: BaF3, 72 h.
A short description of data set [25]: cells. The following applies: Mus musculus, Ba/F3 EML4-ALK, 72 h.
Data set [26] can be described thus: cells. Particulars: Mus musculus, BaF3, 72 h.
Data set [27] can be described thus: cells. Particulars: Mus musculus, Ba/F3 EML4-ALK-G1202R, 72 h.
Data set [28] in a line: cells. The following applies: Mus musculus, BaF3, 72 h. The source holds these as a separate data set.
Data set [29] can be described thus: cells. The following applies: Mus musculus, BaF3, 72 h. This is another data set of the same source.

With `COc1cc(N2CCC3(CCNCC3)CC2)ccc1Nc1ncc(Cl)c(Nc2ccccc2P(C)(C)=O)n1`, the clearance in data set [1] came out at 20.1 mL/min/kg. In addition, the Vd in data set [2] turned out to be 1.3 L/kg. The half-life in [3] was 3.6 h. The molecule also had a Cmax in data set [4] of 977 ng/mL. The AUC(0-t) in data set [5] was found to be 1630 ng·h/mL. Also, the bioavailability in data set [6] worked out at 18.5%. In data set [7], this molecule showed a half-maximal inhibitory concentration (IC50) of 77 nM.
For `COc1cc(N2CCC3(CCN(C)CC3)CC2)c(Cl)cc1Nc1ncc(Cl)c(Nc2ccccc2P(C)(C)=O)n1`, the IC50 came out at 87 nM in data set [7], 10 nM in [8], 12 nM in data set [9] and 15 nM in data set [10].
As for `COc1cc(N2CCC3(CNC3)C2)ccc1Nc1ncc(Cl)c(Nc2ccccc2P(C)(C)=O)n1`, the clearance in [1] is 69 mL/min/kg. The Vd in data set [2] is 3.1 L/kg. The half-life in data set [3] is 1.1 h. This molecule gave a Cmax in data set [4] of 28.7 ng/mL. In data set [5], this molecule yielded an AUC(0-t) of 27.7 ng·h/mL. This molecule registered a bioavailability in data set [6] of 1.2%. Besides, in data set [7], the half-maximal inhibitory concentration (IC50) came to 126 nM.
`COc1cc(N2CCC3(CCN(C)CC3)CC2)c(C)cc1Nc1ncc(Cl)c(Nc2ccccc2P(C)(C)=O)n1` had an IC50 in [7] of 62 nM.
Take `COc1cc(N2CCC3(CCN(C)CC3)CC2)ccc1Nc1ncc(Cl)c(Nc2ccc(F)cc2P(C)(C)=O)n1`: the IC50 in data set [7] was 20 nM; in data set [8] it was 8 nM; in data set [9], 18 nM; in data set [10] it was 17 nM.
In turn, `COc1cc(N2CCC3(CCN(C)CC3)CC2)ccc1Nc1ncc(Cl)c(Nc2ccccc2P(C)(C)=S)n1` showed a clearance in data set [11] of 61 mL/min/kg. For the same molecule, the IC50 in [7] is 30 nM; in [8], 5 nM; in data set [9], 8 nM; in data set [10], 12 nM.
`COc1cc(C2CCC3(CC2)CCN(C)CC3)ccc1Nc1ncc(Cl)c(Nc2ccccc2P(C)(C)=O)n1`: the half-inhibitory concentration (IC50) in data set [7] stood at 36 nM; in data set [8], 11 nM; in [9], 27 nM; in [10], 30 nM.
The molecule `COc1cc(N2CCC3(CCNC3)CC2)ccc1Nc1ncc(Cl)c(Nc2ccccc2P(C)(C)=O)n1` showed an IC50 in data set [7] of 78 nM.
The same measure, in the same setting: next, `COc1cc(N2CCC3(CCN(C)CC3)CC2)c(F)cc1Nc1ncc(Cl)c(Nc2ccccc2P(C)(C)=O)n1`: 15 nM.
Molecule `COc1cc(N2CCC3(CC2)CNC3)ccc1Nc1ncc(Cl)c(Nc2ccccc2P(C)(C)=O)n1` came in with a clearance in data set [1] of 49 mL/min/kg. Further, the Vd in data set [2] was 1.7 L/kg. This molecule also had a half-life in [3] of 1.5 h. In [4], this molecule came in with a Cmax of 113 ng/mL. The AUC(0-t) in data set [5] turned out to be 219 ng·h/mL. Further, the bioavailability in [6] was 5.2%. In data set [7], it took 60 nM to reach half-maximal inhibition (IC50).
For the molecule `CN1CCC2(CC1)CCN(c1ccc(Nc3ncc(Cl)c(Nc4ccccc4P(C)(C)=O)n3)c(OC(F)F)c1)CC2`, the IC50 was found to be 15 nM in data set [7], 24 nM in [8], 39 nM in data set [9] and 36 nM in data set [10].
On to `COc1cc(N2CCC(N3CCN(C)CC3)CC2)ccc1Nc1ncc(Cl)c(Nc2ccccc2P(C)(C)=O)n1` [BRIGATINIB], for which the IC50 in data set [12] was determined as 98 nM; in [13], 93 nM; in data set [14] it was 35 nM; in [15], 47 nM; in [16], 10 nM; in data set [17], 10 nM. The IC50 in data set [18] was determined as 1 nM; in data set [19], 19 nM; in data set [20], 35 nM; in data set [21] it was 48 nM; in data set [22], 12 nM; in data set [23], 20 nM. Moreover, the half-inhibitory concentration (IC50) in [24] is 36 nM; in data set [25], 25 nM; in data set [26], 31 nM; in data set [27], 340 nM; in [28], 31 nM; in data set [29] it was 22 nM.

In general, clearance refers to the volume of plasma or blood freed of the substance per unit of time. The term half-life denotes how long it takes for the measured level to halve. Lower therefore signals rapid decline. Broadly, the Cmax is the highest concentration seen after dosing. By AUC(0-t) is commonly meant the area under the concentration-time curve up to a stated or last time point. Low readings indicate less exposure, high ones more exposure. The term bioavailability denotes dose-corrected exposure relative to a reference, in per cent. The IC50 is the concentration that inhibits the measured activity by half.
